Experimental data as given in US20240252496A1, “SELECTIVE HYPOTHALAMUS PERMEABLE HDAC6 INHIBITORS FORTREATMENT OF LEPTIN-RESISTANT OBESITY” (The Children’s Medical Center Corporation, priority 2022, published 2024).
“Also recorded” adds a separate entry of the source.

Columns and labels:
[1] = test system: DIO mice; assay: Chronic treatment of DIO mice (body weight, food intake, leptin, DEXA); format: in vivo; settings: high fat diet induced mice, summary
Experimental: DIO mice were treated with ACY775 (10 mg/kg/day, i.p.) for 3 weeks. Daily body weight (g) of DIO mice treated with vehicle (n=17) or ACY775 (n=17) during 3 weeks of treatment was determined. Daily food intake (g) during 3 weeks of vehicle or ACY775 treatment was assessed. 24 hours' food intake per mouse during the first week of vehicle or ACY775 treatment was determined. Serum leptin (ng/ml) levels after 3 weeks of vehicle (n=24) or ACY775 (n=24) treatment was assessed. Lean mass (g), fat mass (g) and fat percentage (%) after 3 weeks of vehicle (n=17) or ACY775 (n=17) treatment measured by Dual-energy X-ray absorptiometry (DEXA) scan. DEXA scans were performed in two different cohorts. Glucose tolerance test (GTT) after 1 week of vehicle (n=33) or ACY775 (n=26) treated DIO mice was assessed. Area of curve (AOC) analysis for GTT was performed. Blood glucose (mg/dl) levels after 1 week of vehicle (n=17) or ACY775 (n=16) were assessed in treated DIO mice. Insulin tolerance test (ITT) was performed after 2 weeks of vehicle (n=31) or ACY775 (n=21) treatment of DIO mice. Serum insulin (ng/ml) levels were measured after 3 weeks of vehicle (n=22) or ACY775 (n=21) in treated DIO mice. A homeostatic model assessment of insulin resistance (HOMA-IR) was analyzed after 3 weeks of vehicle (n=14) or ACY775 (n=13) treated DIO mice.
Food intake was analyzed hourly until 3:00 am. […] DEXA scans were performed in two different cohorts.
DIO mice then were treated with ricolinostat (50 mg/kg, i.p.) for 3 weeks. Daily body weight (g), daily food intake (g), serum leptin (ng/ml) levels after 3 weeks of vehicle (n=8) or ricolinostat (n=8) treatment, lean mass (g); fat mass and fat percentage (%) after 3 weeks of vehicle (n=16) or ricolinostat (n=17) treatment measured by DEXA scan were determined.
Studies were conducted as described above with reference to ACY775.
DIO mice then were treated with bavarostat (10 mg/kg, i.p.) for 3 weeks and daily body weight (g) of DIO mice treated with Veh (n=9) or bavarostat (n=9) measured during the three weeks of treatment period. Daily food intake (g) during 3 weeks of Veh or bavarostat treatment was also measured.
ACY1083 was administered to DIO mice as described in Example 3.

[2] = biological target: HDAC6 (Homo sapiens (Human), UniProt Q9UBN7); settings: cited from earlier work
[3] = in words; cited from earlier work
[4] = test system: DIO mice; assay: Chronic treatment of DIO mice (body weight, food intake, leptin, DEXA); format: in vivo; settings: oral administration

Sequence of HDAC6 (Q9UBN7 whole entry, species assumed): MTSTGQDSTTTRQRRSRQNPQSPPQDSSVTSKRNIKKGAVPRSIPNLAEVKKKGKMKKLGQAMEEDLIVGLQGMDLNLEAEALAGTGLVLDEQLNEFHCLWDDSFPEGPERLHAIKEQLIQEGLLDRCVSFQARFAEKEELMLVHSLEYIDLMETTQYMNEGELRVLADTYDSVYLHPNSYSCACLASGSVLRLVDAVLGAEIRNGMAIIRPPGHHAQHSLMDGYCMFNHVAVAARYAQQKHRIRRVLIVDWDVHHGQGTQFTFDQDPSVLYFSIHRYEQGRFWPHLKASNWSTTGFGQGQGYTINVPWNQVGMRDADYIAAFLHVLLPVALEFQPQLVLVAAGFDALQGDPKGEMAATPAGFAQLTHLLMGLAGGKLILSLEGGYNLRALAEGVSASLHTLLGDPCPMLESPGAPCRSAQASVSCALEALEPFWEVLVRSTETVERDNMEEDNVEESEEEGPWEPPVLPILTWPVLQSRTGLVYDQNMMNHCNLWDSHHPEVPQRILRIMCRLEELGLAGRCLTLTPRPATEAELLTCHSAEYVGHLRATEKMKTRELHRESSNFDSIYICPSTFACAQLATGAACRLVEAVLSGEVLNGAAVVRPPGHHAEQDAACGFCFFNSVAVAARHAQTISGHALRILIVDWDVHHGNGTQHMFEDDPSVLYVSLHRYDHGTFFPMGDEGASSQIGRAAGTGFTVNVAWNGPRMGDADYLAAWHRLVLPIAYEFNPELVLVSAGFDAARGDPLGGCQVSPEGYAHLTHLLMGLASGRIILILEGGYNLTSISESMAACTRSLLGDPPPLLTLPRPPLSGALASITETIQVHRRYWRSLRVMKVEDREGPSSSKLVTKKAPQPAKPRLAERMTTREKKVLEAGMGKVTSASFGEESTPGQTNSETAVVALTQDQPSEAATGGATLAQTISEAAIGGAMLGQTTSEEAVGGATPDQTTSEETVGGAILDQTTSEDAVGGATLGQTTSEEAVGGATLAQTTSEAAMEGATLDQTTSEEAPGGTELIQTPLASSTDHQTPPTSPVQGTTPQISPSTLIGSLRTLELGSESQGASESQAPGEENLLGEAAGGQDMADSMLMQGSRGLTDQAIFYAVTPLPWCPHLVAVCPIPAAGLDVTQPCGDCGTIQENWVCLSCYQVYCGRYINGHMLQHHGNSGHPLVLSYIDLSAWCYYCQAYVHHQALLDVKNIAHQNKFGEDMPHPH

Compound: O=C(NO)c1cnc(NC2(c3ccccc3)CCC(F)(F)CC2)nc1 [ACY1083]
- food intake and total body fat mass [1]: significant reduction of food intake and total body fat mass
- selectivity for HDAC6 than all other classes of HDAC isoforms [2]: 260 fold
- brain penetrance / BBB permeability [3]: brain-penetrating
- body weight over 14 days [4]: significant decrease in body weight; also recorded: Significant weight loss; also recorded: reduced body weight
